One compound from patent publication US20190084939A1, “ANALOGS OF FEXARAMINE AND METHODS OF MAKING AND USING” (Salk Institute for Biological Studies, priority 2014, published 2019) can be followed below.

In one assay the test system is TGR5 null mice. Put plainly: chronic PO fexaramine in HFD-fed TGR5-null mice. It is filed as in vivo. The settings on record: 100 mg/kg/day PO 5 weeks. As to the method: HFD-fed TGR5-null mice were treated with vehicle or fexaramine (100 mg/kg os daily for 5 weeks with HFD, n=10). (A) Ileal FXR target gene expressions (B) Serum BA levels (C) Fasting glucose levels (D) Glucose tolerance test (E) Core body temperature (F) Oxygen consumption rate (G) Carbon dioxide production (H) Gene expression in BAT (I) Body weight curve (J) Body composition by MRI (K) Insulin Tolerance Test (L) Hepatic gene expression (M) Hepatic TG levels (N) and Gene expression in soleus of TGR5 knockout mice with and without fexaramine treatment. Data represent the mean±SD. Statistical analysis was performed with the Student's t test. *p<0.05, **p<0.01.
To address this possibility, HFD-fed TGR5 null mice were chronically treated with Fex (100 mg/kg/day PO for 5 weeks). […] In particular, the anti-lipogenic effects of Fex in the liver appear to require TGR5 activation, as key hepatic lipogenic genes and liver triglyceride content were not affected by Fex treatment (FIGS. 11L, 11M).

For another assay, the system named is DIO mice. Put plainly: hyperinsulinemic-euglycemic clamp in DIO mice. In kind it is in vivo. As to the method: FIGS. 15I-15K are a line graph and two bar graphs showing the effect of fexaramine treatment on body weight, insulin-stimulated GDR, and fasting insulin levels. Mice were fed HFD for 14 weeks, and then administered daily oral injections of vehicle or fexaramine (100 mg/kg) for 3 weeks with HFD. The mice treated with fexaramine were initially heavier (by 2-3 grams). Three weeks after treatment, a clamp study was performed on the mice. Data represent the mean±STD. Statistical analysis was performed with the Student's t test (*p<0.05, **p<0.01).

For a further assay, the target named is T1, human TGR5 (Homo sapiens, UniProt Q8TDU6).
T1 construct: expressed in transfected cells; host or cells: HEK293 cells
T1 sequence (Q8TDU6 1-330): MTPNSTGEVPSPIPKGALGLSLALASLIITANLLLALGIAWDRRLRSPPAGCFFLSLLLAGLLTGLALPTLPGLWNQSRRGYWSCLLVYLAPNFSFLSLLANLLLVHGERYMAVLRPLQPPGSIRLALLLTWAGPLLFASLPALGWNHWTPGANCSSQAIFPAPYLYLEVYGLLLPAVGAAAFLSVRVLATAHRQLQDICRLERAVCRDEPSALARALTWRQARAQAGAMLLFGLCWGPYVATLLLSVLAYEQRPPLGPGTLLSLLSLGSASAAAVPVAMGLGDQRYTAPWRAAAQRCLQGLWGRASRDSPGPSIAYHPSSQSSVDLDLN
Put plainly: TGR5 activation, cAMP-response element luciferase in HEK293 cells. It is filed as cell-based. To be noted: 24 hours after transfection. As to the method: HEK293 cells were transfected with expression vectors for cAMP-response element luciferase, β-galactosidase and human TGR5. 24 hours after transfection, cells were treated with fexaramine or INT-777 (a TGR5 agonist).

The next assay has as its system chow-fed mice. Put plainly: chronic PO fexaramine in normal chow-fed mice. In kind it is in vivo. Here is the method: FIGS. 3A-3D are line graphs and a bar graph showing the effects of fexaramine administration in normal chow-fed mice. The mice were treated with vehicle or fexaramine (100 mg/kg) via PO for 5 weeks. Data represent the mean±STD. Statistical analysis as performed with the Student's t test (*p<0.05, **p<0.01).
To investigate the physiological effects of intestinal FXR activation by fexaramine, mice were subjected to chronic fexaramine (100 mg/kg Fex) PO treatment for 5 weeks.

Assay [1] concerns C57BL/6J mice with intragastric ethanol feeding. Nature of the assay: alcoholic liver disease, Tsukamoto-French mouse model. The settings on record: ethanol feeding 3 weeks; 100 mg/kg/day oral gavage. It is filed as in vivo. As to the method: FIGS. 44A-44C are a (A) digital image of histology images of the liver and (B) and (C) bar graphs showing that administration of fexaramine can protect the liver from alcoholic liver disease, for example by decreasing fat in the liver, liver enzyme ALT and triglycerides (TG). C57BL/6J mice, fed an isocaloric diet or ethanol through continuous intragastric feeding for 3 weeks, were co-administered Fexaramine (100 mg/kg/day oral gavage) or vehicle. (A) Histological liver sections from ethanol fed mice after vehicle or fexaramine treatment. (B) Bar graph of serum alanine aminotransferase (ALT) levels in vehicle and fexaramine treated mice after 3 weeks of an ethanol diet (C) Liver triglyceride levels in vehicle and fexaramine treated mice after 3 weeks of an ethanol or isocaloric (control) diet.
The Tsukamoto-French mouse model, which involves continuous intragastric feeding of isocaloric diet or ethanol for 3 weeks, was used. C57BL/6J mice were co-administered vehicle or fexaramine by oral gavage (100 mg/kg/day). Mice were sacrificed after treatment and conjugated and unconjugated bile acid levels measured in serum and liver by liquid chromatography/mass spectrometry.

For a further assay, the system named is human L cells. Put plainly: oxygen consumption rate of intestinal L cells (Seahorse analyzer). In kind it is cell-based. The settings on record: fexaramine 1 μM for 24 hours. Here is the method:
FIG. 41 is a graph showing the effects of modulating FXR activity on the oxidative metabolism of intestinal L cells. L cells were treated with the FXR agonist fexaramine, the FXR antagonist Guggulsterone, or a combination of both, prior to measurement of their oxygen consumption rate (OCR) in a Seahorse analyzer.
To examine the effects of FXR in the secretion of GLP-1, the metabolic changes induced in human L cells was measured by treatment with the FXR agonist, fexaramine and an FXR antagonist guggulsterone. Treatment of L cells with fexaramine (1 μM for 24 hours) lead to an increase in the oxygen consumption rate (OCR), consistent with increased mitochondrial activity and consequently, an increased energetic state (FIG. 41). The reverse effect was seen after treatment with the FXR antagonist, guggulsterone, with lower OCR after drug treatment.

Each structure is given as a SMILES string.

Consider `COC(=O)/C=C/c1cccc(N(Cc2ccc(-c3ccc(N(C)C)cc3)cc2)C(=O)C2CCCCC2)c1` [Fexaramine, fexaramine], for which, in the assay on TGR5 null mice, the “FXR target genes in the ileum incl. FGF15” value is given as “induced”; the “core body temperature and metabolic rate” value is recorded as “somewhat blunted increases”; the “fasting glucose levels and glucose tolerance” value is recorded as “moderate improvements”; the “hepatic lipogenic genes and liver triglyceride content” value was “not affected”. In the assay with TGR5 null mice, the “serum BA levels” value was “lowered” and the “weight gain or insulin sensitivity” value is given as “no significant changes”. Besides, in the assay on DIO mice (versus control DIO mice), the “insulin-mediated suppression of HGP” value is “marked increase”. Also, the “basal HGP, GDR, IS-GDR, FFA suppression and fasting insulin levels” value in the assay with DIO mice (weight-matched cohorts) is reported as “No differences”. For the same compound, at human TGR5, the “activation of TGR5” value was “fails to activate TGR5”. For the same compound, on human TGR5 (listed as Fex), the “activation of TGR5” value is “does not activate”. Further, the “weight gain, basal metabolic activity and glucose tolerance” value in the assay with chow-fed mice (chow-fed mice, 100 mg/kg PO 5 weeks) is “indistinguishable from vehicle-treated mice”. In addition, the glucose homeostasis entry in the assay on chow-fed mice (normal chow-fed mice, range of doses) is on record as “no effects observed”. Besides, in assay [1], the hepatic steatosis entry is given as “decreasing hepatic steatosis” and the “serum levels of alanine aminotransferase (ALT)” value was “decreased”. Also, the “oxygen consumption rate (OCR)” value in the assay with human L cells is on record as “increase”.
